Experimental data from ChEMBL document CHEMBL3639236, “Nitrogen containing morphinan derivatives and the use thereof” (2015).

Key:
Mu-type opioid receptor = Mu-type opioid receptor (Homo sapiens, UniProt P35372); experiment: (§1) Radioligand Dose-Displacement Binding Assay: Radioligand dose-displacement binding assays for u-opioid receptors used 0.3 nM [3H]-diprenorphine (Perkin Elmer, Shelton, Conn.), with […] in a final volume of 500 ul binding buffer (10 mM MgCl2, 1 mM EDTA, 5% DMSO, 50 mM HEPES, pH 7.4). Reactions were carried out in the absence or presence of increasing concentrations of unlabeled naloxone. All reactions were conducted in 96-deep well polypropylene plates for 2 hours at room temperature. Binding reactions were terminated by rapid filtration onto 96-well Unifilter GF/C filter plates (Perkin Elmer, Shelton, Conn.), presoaked in 0.5% polyethylenimine using a 96-well tissue harvester (Perkin Elmer, Shelton, Conn.) followed by performing three filtration washes with 500 ul of ice-cold binding buffer. Filter plates were subsequently dried at 50 C. for 2-3 hours. BetaScint scintillation cocktail (Perkin Elmer, Shelton, Conn.) was added (50 ul/well), and plates were counted using a Packard Top-Counter.
[1] = molecular target: Kappa-type opioid receptor (Homo sapiens, UniProt P41145); experiment: as §1
Chain of Kappa-type opioid receptor (P41145 whole entry): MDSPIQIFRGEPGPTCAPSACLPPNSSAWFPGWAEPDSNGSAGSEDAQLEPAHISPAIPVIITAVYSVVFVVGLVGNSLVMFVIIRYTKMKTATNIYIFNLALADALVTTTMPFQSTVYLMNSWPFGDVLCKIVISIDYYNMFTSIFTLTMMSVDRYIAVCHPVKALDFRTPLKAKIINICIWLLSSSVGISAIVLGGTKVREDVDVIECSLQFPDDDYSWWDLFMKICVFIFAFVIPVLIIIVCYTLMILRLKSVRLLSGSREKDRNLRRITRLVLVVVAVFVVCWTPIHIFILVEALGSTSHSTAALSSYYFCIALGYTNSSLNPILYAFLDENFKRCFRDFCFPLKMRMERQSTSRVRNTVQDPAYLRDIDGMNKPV

Chain of Mu-type opioid receptor (P35372 whole entry): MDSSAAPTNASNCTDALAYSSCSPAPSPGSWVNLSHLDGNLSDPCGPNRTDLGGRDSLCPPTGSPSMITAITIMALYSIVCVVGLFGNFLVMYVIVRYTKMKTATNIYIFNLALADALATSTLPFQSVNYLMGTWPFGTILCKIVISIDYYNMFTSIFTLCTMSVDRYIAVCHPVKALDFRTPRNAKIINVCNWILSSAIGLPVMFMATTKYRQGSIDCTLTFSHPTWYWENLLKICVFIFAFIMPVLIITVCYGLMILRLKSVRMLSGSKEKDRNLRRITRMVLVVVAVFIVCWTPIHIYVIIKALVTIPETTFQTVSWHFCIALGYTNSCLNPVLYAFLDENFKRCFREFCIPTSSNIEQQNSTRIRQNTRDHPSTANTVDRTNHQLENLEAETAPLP

SMILES	Ki (Mu-type opioid receptor)	Ki [1]
COc1ccc(CN2C=C3[C@H]4Cc5ccc(OC)cc5[C@@]3(CCN4CC3CC3)CC2=O)cc1	218 nM	13.1 nM
COc1ccc(CN2C[C@H]3[C@H]4Cc5ccc(OC)cc5[C@@]3(CCN4CC3CC3)CC2=O)cc1		411 nM
